According to publication doi:10.1101/2020.10.06.328336v1 (biorxiv, 2020):

Assays:
[1] = target: T1, SARS-CoV-2 RdRp complex (nsp12-nsp7-nsp8) (Severe acute respiratory syndrome coronavirus 2, UniProt P0DTD1); assay: biochemical
[2] = target: T1, SARS-CoV-2 RdRp complex (nsp12-nsp7-nsp8); assay: […]; assay type: biochemical

Row | SMILES | IC50 [1] | IC50 [2]
1 | O=C(Nc1cc(C(=O)Nc2ccc(S(=O)(=O)O)cc2)cc(C(=O)Nc2ccc(S(=O)(=O)O)cc2)c1)Nc1cc(C(=O)Nc2ccc(S(=O)(=O)O)cc2)cc(C(=O)Nc2ccc(S(=O)(=O)O)cc2)c1 [NF110] | 580 ± 40 nM | 
2 | O=C(Nc1cccc(C(=O)Nc2cc(C(=O)Nc3ccc(S(=O)(=O)O)c4cc(S(=O)(=O)O)cc(S(=O)(=O)O)c34)ccc2F)c1)Nc1cccc(C(=O)Nc2cc(C(=O)Nc3ccc(S(=O)(=O)O)c4cc(S(=O)(=O)O)cc(S(=O)(=O)O)c34)ccc2F)c1 [NF157] | 50 nM | 
3 | O=C(Nc1ccc(C(=O)Nc2ccc(C(=O)Nc3ccc(S(=O)(=O)O)c4cc(S(=O)(=O)O)cc(S(=O)(=O)O)c34)cc2)cc1)Nc1ccc(C(=O)Nc2ccc(C(=O)Nc3ccc(S(=O)(=O)O)c4cc(S(=O)(=O)O)cc(S(=O)(=O)O)c34)cc2)cc1 [NF279] | 50 nM | 
4 | O=C(Nc1cc(C(=O)Nc2ccc(S(=O)(=O)O)cc2S(=O)(=O)O)cc(C(=O)Nc2ccc(S(=O)(=O)O)cc2S(=O)(=O)O)c1)Nc1cc(C(=O)Nc2ccc(S(=O)(=O)O)cc2S(=O)(=O)O)cc(C(=O)Nc2ccc(S(=O)(=O)O)cc2S(=O)(=O)O)c1 [NF449] | 50 nM | 
5 | Cc1ccc(C(=O)Nc2ccc(S(=O)(=O)O)c3cc(S(=O)(=O)O)cc(S(=O)(=O)O)c23)cc1NC(=O)c1cccc(NC(=O)Nc2cccc(C(=O)Nc3cc(C(=O)Nc4ccc(S(=O)(=O)O)c5cc(S(=O)(=O)O)cc(S(=O)(=O)O)c45)ccc3C)c2)c1 [suramin] |  | 260 nM
